According to patent publication US8067535B2 (priority 2003, dated 2011):

How the values were obtained:
[1] = test system: vaccinia virus-specific CD8^+ CTL lines; assay type: cell-based, human
[2] = test system: CD8^+ T cells in PBMCs of HLA-A0201-positive donors; assay type: cell-based, human

Q: How did the “recognition by CTL line” value [1] turn out when TVADVRHCL [peptide B7080] was run?
A: recognized

Q: Which “kinetics of the frequency of epitope-specific CD8^+ T cells: peak” value [2] does the source give for CLTEYILWV [peptide 74A] here?
A: peaked two weeks after primary immunization

Q: And the “kinetics of the frequency of epitope-specific CD8^+ T cells: persistence” value [2]?
A: still detectable one to three years following primary immunization

Q: And the “recognition by CTL line” value [1]?
A: recognized

Q: What about the “specific recognition of epitope peptide by CTL line” value [1] of the same sequence?
A: high level of specific recognition

Q: Which “recognition by CTL line” value [1] does the source give for LLYAHINAL [peptide 029D] here?
A: recognized

Q: How did the “recognition by CTL line” value [1] turn out when MPAYIRNTL [peptide B7034] was run?
A: recognized

Q: How did the “kinetics of the frequency of epitope-specific CD8^+ T cells: peak” value [2] turn out when KVDDTFYYV [peptide 165] was run?
A: peaked two weeks after primary immunization

Q: And the “kinetics of the frequency of epitope-specific CD8^+ T cells: persistence” value [2]?
A: still detectable one to three years following primary immunization

Q: And the “recognition by CTL line” value [1]?
A: recognized

Q: What about the “specific recognition of epitope peptide by CTL line” value [1] of the same sequence?
A: high level of specific recognition
